Reference: paper PMC11989212, “Experimental Conditions to Retrieve Intrinsic Cooperativity α Directly from Single Binding Assay Data Exemplified by the Ternary Complex Formation of FKBP12, MAPRE1 and Macrocyclic Molecular Glues” (International Journal of Molecular Sciences, 2025)

Experiments:
FKBP12 = FKBP12 (Homo sapiens, UniProt P62942); assay: Spectral shift target engagement assay, binary binding to FKBP12; conditions: 40 nM FKBP12-NTA
Text: Our method of choice is the spectral shift method, which monitors binding events on the target isothermally and in equilibrium via an environment-sensitive near-infrared fluorophore. In the case of target engagement, either the proximity of the ligand towards the dye or structural changes occurring in the target as a result of binding lead to a change in the chemical environment of the fluorophore. Those changes affect the physiochemical properties of the reporter fluorophore and translate into either blue or red shifts (or peak broadening) of emission peaks upon ligand binding, which can be sensitively monitored by simultaneously recording the fluorescence at two wavelengths (i.e., at 650 nm and 670 nm). Calculating the ratio between the two fluorescence channels then allows to monitor subtle emission shifts that occur as a result of target engagement. Affinity measurements can then be performed by recording the spectral shift as a function of ligand concentration.
Binding studies through FKBP12: To monitor the binding of R,--SLF-11 by the stronger binding FKBP12 in the absence and in the presence of 10 μM MAPRE1 via %Cbound, binary and %Cbound, ternary, respectively, the concentration of reversibly NTA-labeled FKBP12 was limited to [Ctot] = 40 nM. […] In contrast to the experimental setup in the previous two binding experiments with monitoring through the weaker binding protein MAPRE1, where the applied protein concentrations were optimally chosen, this is not the case for the binding experiment through the stronger binder FKBP12. First of all, the applied excess of T with [Ttot] = 10 μM is roughly 20000-fold off of the proposed 100 times KT,1 threshold, which would correspond to 180 mM. Only under such excess conditions of T can the equilibrium of forming TL under the constraint that all ligand L is bound to T be reached to ensure that [Ltot] approaches the “ligand” concentration [TL]. […] If KC,2 is sufficiently high, the 20 nM deviation to correct for the protein concentration could be neglected. However, the resulting calculated value for KC,2 is 0.023 nM, accounting for the cooperativity α = 10,405 and KC,1 = 234 nM as derived by the MAPRE1 experiment. This value is far below the applied protein concentration of [Ctot] = 40 nM and makes it infeasible to estimate KC,2 from the EC50 of the %Cbound, ternary curve. Consequently, the EC50 shifts, meaning the apparent cooperativity, from monitoring the binding by the stronger binding protein C are diverging from the underlying intrinsic cooperativity α. […] The deviation of calculated (254 nM/24.2 nM = 10.5) and measured apparent cooperativity (254 nM/66 nM = 3.8) can be explained by a negative cooperativity induced by the His6-NTA tag of FKBP12. Studies to lower [Ctot] and identify a better position for the spectral shift tag on FKBP12 are ongoing (Figure 6a).
His-tagged FKBP12 was labeled using the His-Tag Labeling Kit RED-tris-NTA 2nd Generation (MO-L018; NanoTemper Technologies GmbH). The affinity between NTA dye and the His-tag of FKBP12 was determined as 7 nM. MAPRE1 was labeled using the Protein Labeling Kit RED-NHS 2nd Generation (MO-L011; NanoTemper Technologies GmbH). In brief, 10 µM of MAPRE1 was incubated with a 3-fold molar excess of fluorophore for 30 min. The unreacted fluorophore was removed by performing a size exclusion purification (B-column). Collecting the protein fraction yielded 1.8 µM labeled MAPRE1, with a degree of labeling of 0.8, as determined on a Nanodrop.
A 1:2 dilution series of all compounds (starting from the 10 mM stock concentration) was prepared in pure DMSO. Each concentration was diluted 25-fold with assay buffer (20 mM HEPES, pH 7.4, 150 mM NaCl, 1 mM DTT (all from Carl Roth, Karlsruhe, Germany), and 0.01% Pluronic F-127 (Sigma Aldrich, Taufkirchen, Germany)). Next, 10 µL from each of the prepared ligand dilutions was transferred into an empty well on a Dianthus Microwell Plate (DI-P001A). […]

[1] = Precipitation seen in the spectral shift titration; type: physicochemical; conditions: assay buffer, high concentrations
Procedure: Therefore, measurements from the highest concentration samples had to be removed, which impaired the determination of the interpolation curve. Moreover, the signal is much smaller compared to the other studied ligands. […] This is a deviation from the theoretically found true value of 1985 nM − 2.5 nM = 1982.5 nM. The KT,2 is 2% below the EC50 value of the %Tbound, ternary curve. The apparent cooperativity of 460,000 nM/1985 nM = 232 is still below the cooperativity α of 460,000 nM/1941 = 237 (Figure 10b).
A 1:2 dilution series of all compounds (starting from the 10 mM stock concentration) was prepared in pure DMSO. Each concentration was diluted 25-fold with assay buffer (20 mM HEPES, pH 7.4, 150 mM NaCl, 1 mM DTT (all from Carl Roth, Karlsruhe, Germany), and 0.01% Pluronic F-127 (Sigma Aldrich, Taufkirchen, Germany)). Next, 10 µL from each of the prepared ligand dilutions was transferred into an empty well on a Dianthus Microwell Plate (DI-P001A). […] For all interactions measured via FKBP12, the target was prepared at a final concentration of 40 nM, supplemented with 5 nM NTA fluorophore. […] The resulting spectral shift signal (Ratio 670 nm/650 nm) was plotted against compound concentration and analyzed in the DI.Screening Analysis software, version 2.1.1.

FKBP12, sequence (P62942 whole entry, species assumed): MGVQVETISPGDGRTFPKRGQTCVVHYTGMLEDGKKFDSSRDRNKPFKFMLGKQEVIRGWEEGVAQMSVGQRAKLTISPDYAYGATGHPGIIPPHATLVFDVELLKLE

C=C1CCN2C(=O)COc3cccc(c3)C(CCc3ccc(OC)c(OC)c3)OC(=O)C3CCCCN3C(=O)C(=O)C(C)(C)COC(=O)C(CN)NC(=O)C2C1 (stereo not drawn) [R,S-SLF-7]
EC50 (FKBP12; no MAPRE1, read-out: EC50 of the %Cbound, binary curve): 186 nM
Kd (FKBP12; KC,1 = EC50 − [Ctot]/2): 166 nM
precipitation [1]: precipitation at high concentrations
